Test results published in ChEMBL document CHEMBL1125733, “Fluoronaphthyridines and -quinolones as antibacterial agents. 3. Synthesis and structure-activity relationships of new 1-(1,1-dimethyl-2-fluoroethyl), 1-[1-methyl-1-(fluoromethyl)-2-fluoroethyl], and 1-[1,1-(difluoromethyl)-2-fluoroethyl] substituted derivatives” (J Med Chem, 1991).
In brackets after ≈: the same amount, converted by molar mass.

Tests used:
Type in all cases: functional
Bacteroides fragilis = assay: Compound was tested in vitro for its antibacterial activity (minimum inhibitory concentration) against Bacteroides fragilis A 22862.; conditions: A22862
Enterococcus faecalis = assay: In vitro antibacterial activity against Enterococcus faecalis A 9809
Escherichia coli = assay: In vitro antibacterial activity against Escherichia coli A 15119
Enterobacter cloacae = assay: In vitro antibacterial activity against Enterobacter cloacae A 9656
Haemophilus influenzae = assay: In vitro antibacterial activity against Haemophilus influenzae A 21515
Klebsiella pneumoniae = assay: In vitro antibacterial activity against Klebsiella pneumoniae A 9664
Morganella morganii = assay: In vitro antibacterial activity against Morganella morganii A 15153
Pseudomonas aeruginosa = assay: Compound was tested in vitro for its antibacterial activity (minimum inhibitory concentration, MIC) against Pseudomonas aeruginosa A 9843
Proteus mirabilis = assay: In vitro antibacterial activity (minimum inhibitory concentration, MIC) against Proteus mirabilis A 9900
Serratia marcescens = assay: In vitro antibacterial activity (minimum inhibitory concentration) against Serratia marcescens A 20019.
Streptococcus pneumoniae = assay: In vitro antibacterial activity against Streptococcus pneumoniae A 9585
Staphylococcus aureus [1] = assay: In vitro antibacterial activity against Staphylococcus aureus A 24227
Staphylococcus aureus [2] = assay: In vitro antibacterial activity (minimum inhibitory concentration, MIC) against Staphylococcus aureus A 9537.

SMILES | MIC (Bacteroides fragilis) [µg/mL] | MIC (Enterococcus faecalis) [µg/mL] | MIC (Escherichia coli) [µg/mL] | MIC (Enterobacter cloacae) [µg/mL] | MIC (Haemophilus influenzae) [µg/mL] | MIC (Klebsiella pneumoniae) [µg/mL] | MIC (Morganella morganii) [µg/mL] | MIC (Pseudomonas aeruginosa) [µg/mL] | MIC (Proteus mirabilis) [µg/mL] | MIC (Serratia marcescens) [µg/mL] | MIC (Streptococcus pneumoniae) [µg/mL] | MIC (Staphylococcus aureus [1]) [µg/mL] | MIC (Staphylococcus aureus [2]) [µg/mL]
Cl.O=C(O)c1cn(C(CF)(CF)CF)c2nc(N3CCNCC3)c(F)cc2c1=O | 125 | 16 | 0.5 | 0.5 | 0.5 | 1 | 0.5 | 16 | 2 | 1 | 32 | 8 | 8
CC(CF)(CF)n1cc(C(=O)O)c(=O)c2cc(F)c(N3CCNCC3)cc21.Cl | 16 | 1 | 0.13 | 0.25 | 0.06 | 0.13 | 0.06 | 1 | 0.13 | 0.5 | 8 | 2 | 1
C[C@H]1C[C@H](N)CN1c1nc2c(cc1F)c(=O)c(C(=O)O)cn2C(CF)(CF)CF.Cl | 125 | 4 | 0.5 | 1 | 0.5 | 2 | 2 | 32 | 4 | 2 | 8 | 1 | 0.5
C[C@H]1CN(c2cc3c(cc2F)c(=O)c(C(=O)O)cn3C(C)(C)CF)C[C@@H]1N | 4 (≈ 10.5 µM) | 0.25 (≈ 0.659 µM) | 0.008 (≈ 0.0211 µM) | 0.03 (≈ 0.0791 µM) | 0.008 (≈ 0.0211 µM) | 0.13 (≈ 0.343 µM) | 0.06 (≈ 0.158 µM) | 0.5 (≈ 1.32 µM) | 0.06 (≈ 0.158 µM) | 0.13 (≈ 0.343 µM) | 0.25 (≈ 0.659 µM) | 0.06 (≈ 0.158 µM) | 0.03 (≈ 0.0791 µM)
CC(CF)(CF)n1cc(C(=O)O)c(=O)c2cc(F)c(N3CCNCC3)nc21.Cl | 125 | 16 | 0.13 | 0.25 | 0.25 | 0.25 | 0.13 | 4 | 1 | 0.5 | 16 | 4 | 4
CC(C)(CF)n1cc(C(=O)O)c(=O)c2cc(F)c(N3CC[C@H](N)C3)nc21.Cl | 16 | 4 | 0.03 | 0.13 | 0.5 | 0.03 | 0.06 | 1 | 0.5 | 0.25 | 0.03 | 0.13 | 0.03
CC(CF)(CF)n1cc(C(=O)O)c(=O)c2cc(F)c(N3CC4C[C@@H]3CN4)nc21.Cl | 32 | 4 | 0.13 | 0.13 | 0.016 | 0.5 | 0.13 | 1 | 0.5 | 0.5 | 8 | 2 | 2
CC(CF)(CF)n1cc(C(=O)O)c(=O)c2cc(F)c(N3CC[C@H](N)C3)nc21.CS(=O)(=O)O | 125 | 16 | 0.5 | 0.5 | 0.25 | 2 | 0.5 | 8 | 4 | 2 | 16 | 4 | 8
CS(=O)(=O)O.C[C@H]1C[C@H](N)CN1c1cc2c(cc1F)c(=O)c(C(=O)O)cn2C(C)(C)CF | 4 | 0.25 | 0.03 | 0.06 | 0.016 | 0.13 | 0.5 | 1 | 0.13 | 0.25 | 0.25 | 0.03 | 0.03
C[C@H]1C[C@H](N)CN1c1nc2c(cc1F)c(=O)c(C(=O)O)cn2C(C)(C)CF.Cl | 16 | 0.13 | 0.016 | 0.06 | 0.016 | 0.06 | 0.13 | 1 | 0.13 | 0.13 | 0.13 | 0.008 | 0.008
